Key:
BSJ-03-123 = compound: CC(=O)c1c(C)c2cnc(Nc3ccc(N4CCN(CCOCCOCCOCCNC(=O)COc5cccc6c5C(=O)N(C5CCC(=O)NC5=O)C6=O)CC4)cn3)nc2n(C2CCCC2)c1=O [BSJ-03-123]; assay: GR value, 72 h; higher = faster growth (1 = untreated, <0 = killing);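 further: breast cancer and non-malignant breast epithelial lines, nine half-log doses, viable cells counted by Hoechst and LIVE/DEAD dye imaging versus time-zero plates and DMSO controls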
YKL-5-124 = compound: C=CC(=O)Nc1ccc(C(=O)Nc2[nH]nc3c2CN(C(=O)N[C@H](CN(C)C)c2ccccc2)C3(C)C)cc1 [YKL-5-124]; assay: as above
[1] = compound: CCN1CCN(Cc2ccc(Nc3ncc(F)c(-c4cc(F)c5nc(C)n(C(C)C)c5c4)n3)nc2)CC1; assay: as above
THZ531 [2] = compound: T1, CN(C)C/C=C/C(=O)Nc1ccc(C(=O)N2CCC[C@@H](Nc3ncc(Cl)c(-c4c[nH]c5ccccc45)n3)C2)cc1 [THZ531]; assay: as above
[3] = compound: CCc1cnn2c(NCc3ccc[n+]([O-])c3)cc(N3CCCC[C@H]3CCO)nc12; assay: as above
THZ1 = compound: CN(C)C/C=C/C(=O)Nc1ccc(C(=O)Nc2cccc(Nc3ncc(Cl)c(-c4c[nH]c5ccccc45)n3)c2)cc1 [THZ1]; assay: as above
[4] = compound: CC(=O)c1c(C)c2cnc(Nc3ccc(N4CCNCC4)cn3)nc2n(C2CCCC2)c1=O; assay: as above
LEE011/Ribociclib = compound: CN(C)C(=O)c1cc2cnc(Nc3ccc(N4CCNCC4)cn3)nc2n1C1CCCC1 [LEE011/Ribociclib]; assay: as above
senexin b = compound: CN1CCN(C(=O)c2ccc3cc(CCNc4ncnc5ccc(C#N)cc45)ccc3c2)CC1 [senexin b]
Tivantinib/ARQ197 = compound: O=C1NC(=O)[C@@H](c2cn3c4c(cccc24)CCC3)[C@@H]1c1c[nH]c2ccccc12 [Tivantinib/ARQ197]
THZ531 [5] = compound: T1, THZ531
BSJ-01-175 = compound: CN(C)C/C=C/C(=O)Nc1ccc(O[C@@H]2CCC[C@@H](Nc3ncc(Cl)c(-c4c[nH]c5ccccc45)n3)C2)cc1 [BSJ-01-175]
Pictilisib/GDC0941 = compound: CS(=O)(=O)N1CCN(Cc2cc3nc(-c4cccc5[nH]ncc45)nc(N4CCOCC4)c3s2)CC1 [Pictilisib/GDC0941]
Rucaparib = compound: CNCc1ccc(-c2[nH]c3cc(F)cc4c3c2CCNC4=O)cc1 [Rucaparib]
AZD6738 = compound: C[C@@H]1COCCN1c1cc(C2([S@](C)(=N)=O)CC2)nc(-c2cc[nH]c3nccc2-3)n1 [AZD6738]
Cediranib/AZD2171 = compound: COc1cc2c(Oc3ccc4[nH]c(C)cc4c3F)ncnc2cc1OCCCN1CCCC1 [Cediranib/AZD2171]
Ceritinib/LDK378 = compound: Cc1cc(Nc2ncc(Cl)c(Nc3ccccc3S(=O)(=O)C(C)C)n2)c(OC(C)C)cc1C1CCNCC1 [Ceritinib/LDK378]
Paclitaxel = compound: CC(=O)O[C@H]1C(=O)[C@@]2(C)[C@H]([C@H](OC(=O)c3ccccc3)[C@]3(O)C[C@H](OC(=O)[C@H](O)[C@@H](NC(=O)c4ccccc4)c4ccccc4)C(C)=C1C3(C)C)[C@]1(OC(C)=O)CO[C@@H]1C[C@@H]2O [Paclitaxel]
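Wherever GR50, 72 h is given: breast cancer and non-malignant breast epithelial cell lines, Deep Dye Drop or Dye Drop imaging, nine half-log doses, GR normalized to time-zero plates and DMSO-only controls.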

Cell Line: HTERT_HME1
- GR value (BSJ-03-123; 0.001 µM): 0.903 GR
- GR value (BSJ-03-123; 0.003162 µM): 0.87 GR
- GR value (BSJ-03-123; 0.01 µM): 0.78 GR
- GR value (BSJ-03-123; 0.03162 µM): 0.635 GR
- GR value (BSJ-03-123; 0.1 µM): 0.702 GR
- GR value (BSJ-03-123; 0.3162 µM): 0.551 GR
- GR value (BSJ-03-123; 1 µM): 0.386 GR
- GR value (BSJ-03-123; 3.162 µM): 0.34 GR
- GR value (BSJ-03-123; 10 µM): -0.153 GR
- GR value (YKL-5-124; 0.001 µM): 0.41 GR
- GR value (YKL-5-124; 0.003162 µM): 0.245 GR
- GR value (YKL-5-124; 0.01 µM): 0.16 GR
- GR value (YKL-5-124; 0.03162 µM): 0.177 GR
- GR value (YKL-5-124; 0.1 µM): 0.0758 GR
- GR value (YKL-5-124; 0.3162 µM): 0.0849 GR
- GR value (YKL-5-124; 1 µM): 0.0535 GR
- GR value (YKL-5-124; 3.162 µM): -0.036 GR
- GR value (YKL-5-124; 10 µM): -0.144 GR
- GR value ([1]; 0.001 µM): 1.05 GR
- GR value ([1]; 0.003162 µM): 0.987 GR
- GR value ([1]; 0.01 µM): 0.867 GR
- GR value ([1]; 0.03162 µM): 0.718 GR
- GR value ([1]; 0.1 µM): 0.588 GR
- GR value ([1]; 0.3162 µM): 0.433 GR
- GR value ([1]; 1 µM): 0.279 GR
- GR value ([1]; 3.162 µM): 0.136 GR
- GR value ([1]; 10 µM): 0.0346 GR
- GR value (THZ531 [2]; 0.0001 µM): 0.956 GR
- GR value (THZ531 [2]; 0.0003162 µM): 0.956 GR
- GR value (THZ531 [2]; 0.001 µM): 0.939 GR
- GR value (THZ531 [2]; 0.003162 µM): 1.03 GR
- GR value (THZ531 [2]; 0.01 µM): 1.11 GR
- GR value (THZ531 [2]; 0.03162 µM): 1.02 GR
- GR value (THZ531 [2]; 0.1 µM): 0.889 GR
- GR value (THZ531 [2]; 0.3162 µM): 0.179 GR
- GR value (THZ531 [2]; 1 µM): -0.207 GR
- GR value ([3]; 0.0001 µM): 1.08 GR
- GR value ([3]; 0.0003162 µM): 1.07 GR
- GR value ([3]; 0.001 µM): 1.1 GR
- GR value ([3]; 0.003162 µM): 1.09 GR
- GR value ([3]; 0.01 µM): 0.754 GR
- GR value ([3]; 0.03162 µM): -0.268 GR
- GR value ([3]; 0.1 µM): -0.267 GR
- GR value ([3]; 0.3162 µM): -0.27 GR
- GR value ([3]; 1 µM): -0.28 GR
- GR value (THZ1; 0.0001 µM): 1.1 GR
- GR value (THZ1; 0.0003162 µM): 0.944 GR
- GR value (THZ1; 0.001 µM): 0.928 GR
- GR value (THZ1; 0.003162 µM): 0.72 GR
- GR value (THZ1; 0.01 µM): -0.0367 GR
- GR value (THZ1; 0.03162 µM): -0.275 GR
- GR value (THZ1; 0.1 µM): -0.295 GR
- GR value (THZ1; 0.3162 µM): -0.319 GR
- GR value (THZ1; 1 µM): -0.497 GR
- GR value ([4]; 0.0003162 µM): 1.03 GR
- GR value ([4]; 0.001 µM): 1.06 GR
- GR value ([4]; 0.003162 µM): 1.03 GR
- GR value ([4]; 0.01 µM): 0.956 GR
- GR value ([4]; 0.03162 µM): 0.796 GR
- GR value ([4]; 0.1 µM): 0.615 GR
- GR value ([4]; 0.3162 µM): 0.458 GR
- GR value ([4]; 1 µM): 0.354 GR
- GR value ([4]; 3.162 µM): 0.235 GR
- GR value (LEE011/Ribociclib; 0.001 µM): 0.864 GR
- GR value (LEE011/Ribociclib; 0.003162 µM): 0.776 GR
- GR value (LEE011/Ribociclib; 0.01 µM): 0.741 GR
- GR value (LEE011/Ribociclib; 0.03162 µM): 0.737 GR
- GR value (LEE011/Ribociclib; 0.1 µM): 0.623 GR
- GR value (LEE011/Ribociclib; 0.3162 µM): 0.568 GR
- GR value (LEE011/Ribociclib; 1 µM): 0.538 GR
- GR value (LEE011/Ribociclib; 3.162 µM): 0.467 GR
- GR value (LEE011/Ribociclib; 10 µM): 0.29 GR
- GR50, 72 h (senexin b): > 10 µM
- GR50, 72 h (Tivantinib/ARQ197): 0.0344 µM
- GR50, 72 h (THZ531 [5]): 0.22 µM
- GR50, 72 h (BSJ-01-175): 0.00582 µM
- GR50, 72 h (Pictilisib/GDC0941): 2.8 µM
- GR50, 72 h (Rucaparib): > 10 µM
- GR50, 72 h (AZD6738): 5.78 µM
- GR50, 72 h (Cediranib/AZD2171): 7.57 µM
- GR50, 72 h (Ceritinib/LDK378): 0.822 µM
- GR50, 72 h (Paclitaxel): 0.00317 µM
